Results published in patent US12365643B2, “Phenoxy carboxylic acid compounds and medical uses thereof” (QINGDAO RISING BIOTECHNOLOGY CO., LTD, priority 2018, dated 2025).

Assays:
CPT1α = CPT1α protein level by Western blotting in HepG2; assay type: cell-based, human; conditions: 1 μM, 24 hours, HepG2, Western blotting (FIG. 6A)
Excerpt: (§1) Carnitine palmitoyltransferase (CPT1α) is a rate-limiting enzyme of fatty acid oxidation. When the body or tissues are lacking in energy, CPT1α catalyzes the entry of fatty acids into mitochondria for […], and at the same time, CPT1α is also involved in the regulation of fatty acid-induced insulin resistance and inflammation. Protein kinase B/glycogen synthase kinase 3β (AKT/GSK3β) signaling pathway and insulin receptor substrate 1 (IRS-1) are key signaling pathways that regulate glucose metabolism in response to insulin signal. Therefore, by determining the effects of compounds on the CPT1α protein level and the AKT, GSK3β and IRS-1 protein phosphorylation levels, it is possible to evaluate the regulatory effects of the compounds on glycolipid metabolism.
(§2) After human liver cancer cells HepG2 were incubated with the compound of the present application or the control drug at 1 μM for 24 hours, the CPT1α protein level and the AKT, GSK3β and IRS-1 phosphorylated protein levels in the cells were determined by Western blotting; after gray-scale scanning by using Image J15.0.1, normalization was performed by using β-tubulin protein level as internal control, and the quantitative analysis results were shown in FIG. 6.

ACOX1 = ACOX1 mRNA expression by real-time quantitative PCR in HepG2; assay type: cell-based, human; conditions: 1 μM, 6 hours, HepG2 (FIG. 5D)
Excerpt: (§3) Peroxisome proliferation factor activated receptor (PPAR) is an important nuclear receptor that regulates glycolipid metabolism, including three subtypes: α, β/δ and γ. Peroxisome proliferator-activated receptor γ coactivator 1α (PGC-1α) is its auxiliary transcriptional activator. Acyl-CoA oxidase 1 (ACOX1) is the first rate-limiting enzyme for fatty acid β oxidation. Fatty acid binding protein 1 (FABP1) is highly expressed in liver, and can bind fatty acid, heme and other molecules to reduce their toxicity and damage. Up-regulating the expression level of these genes helps to improve the body's metabolism, and their agonists are an important class of anti-metabolic drugs. After the compound of the present application (1 μM) and the control drug gemfibrozil (1 μM) were incubated with human liver cancer cells HepG2 for 6 hours, real-time fluorescent quantitative PCR method was used to determine the relative expression of mRNA of related genes in the cells.
(§4) The company which synthesized the primers was Suzhou Hongxun Biotechnology Co., Ltd. Tranzol reagent (Tranzol total RNA extraction reagent, TransGen Biotech) was used to extract total RNA from tissues. 5× All-In-One RT MasterMix reverse transcription kit (Abcam, USA) and real-time quantitative PCR Master Mix (Aidlab Biotechnologies Co., Ltd) were used. Bio-Rad CFX Connect™ Real-Time PCR Detection System for qPCR was used, and 2^−ΔΔCT method was used for data analysis. The expression level of mRNA in the normal control group was set to 1, and the relative expression level of mRNA in the administration group was calculated, so as to confirm whether the active compound affected the PPAR pathway, thereby further regulating lipid metabolism.

PGC1α = PGC1α mRNA expression by real-time quantitative PCR in HepG2; assay type: cell-based, human; conditions: 1 μM, 6 hours, HepG2 (FIG. 5C)
Excerpt: as §3, §4

phosphorylated GSK3β = test: Phosphorylated GSK3β level by Western blotting in HepG2; assay type: cell-based, human; conditions: 1 μM, 24 hours, HepG2, Western blotting (FIG. 6B)
Excerpt: as §1, §2

PPARγ = PPARγ mRNA expression by real-time quantitative PCR in HepG2; assay type: cell-based, human; conditions: 1 μM, 6 hours, HepG2 (FIG. 5B)
Excerpt: as §3, §4

phosphorylated IRS-1 = test: Phosphorylated IRS-1 level by Western blotting in HepG2; assay type: cell-based, human; conditions: 1 μM, 24 hours, HepG2, Western blotting (FIG. 6C)
Excerpt: as §1, §2

db/db mice = test: Diabetes mellitus model (db/db mice); assay type: in vivo, mouse; conditions: for blood glucose level: 50 mg/kg intragastric once a day for 28 days (FIG. 7); for AHDL (high density lipoprotein) / ALDL (low density lipoprotein) / ALT / AST / BUN / CHOL (total cholesterol) / CK / CREA / TGL (triglycerides) / fat content in the liver (Oil red O and H.E. staining): intragastric once a day for 28 days; for AHDL (high density lipoprotein) / ALDL (low density lipoprotein) / ALT / AST / BUN / CHOL (total cholesterol) / CK / CREA / TGL (triglycerides): 50 mg/kg (pioglitazone 6 mg/kg); for fat content in the liver (Oil red O and H.E. staining): 50 mg/kg (pioglitazone 6 mg/kg) (FIGS. 8A-8B)
Excerpt: Animal model: C57BL/KsJ-leprdb/leprdb diabetic (db/db) mice were widely used as animal models of type 2 diabetes mellitus, in which spontaneous mutations of leptin receptor (Leptin receptor, Lepr) caused extreme obesity, polyphagia, diabetes and polyuria. In this experiment, db/db mice (purchased from the Department of Animals, Health Science Center of Peking University) were selected. In the experiment, 28 db/db mice were used, and the animals with blood glucose of about 7-13 mmol/L were selected. […] Intragastric administration was adopted with an administration volume of 10 ml/kg. […] The administration was performed once a day for 28 consecutive days. From the day of oral administration, the physiological changes of the animals were observed every day. Blood glucose was measured every 3 days (Roche blood glucose meter) and blood glucose difference (Δ) was calculated by the following formula: blood glucose difference (Δ)=the blood glucose of the day—the initial blood glucose (the initial blood glucose difference was zero). For mice in each experimental group, blood was collected, serum was separated, and liver was taken for wet-weight measurement after necropsy; liver tissue was taken and fixed for pathological examination, H.E. staining and oil red O staining (Wuhan Zishan Biotechnology Co., Ltd.) were performed, and mouse liver lesions were observed under light microscope; routine examination of blood was performed by Animal Laboratory Department, Health Science Center of Peking University to measure the following indexes: white blood cell count (WBC), red blood cell count (RBC), lymphocyte count (LY), platelet (PLT) and so on; biochemical laboratory examination of blood was performed by Laboratory Medicine, Third Hospital, Peking University to measure the following indexes: triglycerides (TG), total cholesterol (T-CHO), high-density lipoprotein cholesterol (HDL-C), low-density lipoprotein cholesterol (LDL-C) and so on.

[1] = Metabolism of BJMU-2 by the liver
[2] = 50 mg/kg intragastric once a day for 28 days

BUN (db/db mice) [mmol/L] | CK (db/db mice) [U/L] | CREA (db/db mice) [µmol/L] | Structure (SMILES) | CPT1α protein level (CPT1α) | ACOX1 mRNA expression (ACOX1) | PGC1α mRNA expression (PGC1α) | phosphorylation level of GSK3β (phosphorylated GSK3β) | PPARγ mRNA expression (PPARγ) | phosphorylation level of IRS-1 (phosphorylated IRS-1) | activity of lowering triglycerides (in words) (db/db mice; [2]) | total cholesterol content in blood (in words) (db/db mice; [2]) | blood glucose level (db/db mice) | AHDL (high density lipoprotein) (db/db mice) [mmol/L] | ALDL (low density lipoprotein) (db/db mice) [mmol/L] | ALT (db/db mice) | AST (db/db mice) [U/L] | CHOL (total cholesterol) (db/db mice) [mmol/L] | TGL (triglycerides) (db/db mice) [mmol/L] | fat content in the liver (Oil red O and H.E. staining) (db/db mice) | metabolism by the liver [1]
 |  |  | Cc1cc(OCCCC(C)(C)C(=O)O)c(C)cc1Cl [BJMU-1, 5-(4-chloro-2,5-dimethylphenoxy)-2,2-dimethylpentanoic acid] | significantly increased CPT1α protein level | significantly induced ACOX1 mRNA expression | significantly induced PGC1α mRNA expression |  |  |  |  |  |  |  |  |  |  |  |  |  | 
7.23 ± 1.19 | 1790.75 ± 388.38 | 10.13 ± 5.25 | Cc1cc(OCCCC(C)(C)C(=O)O)c(C)cc1Br [BJMU-2, 5-(4-bromo-2,5-dimethylphenoxy)-2,2-dimethylpentanoic acid] | significantly increased CPT1α protein level | significantly induced ACOX1 mRNA expression | significantly induced PGC1α mRNA expression | significantly increased the phosphorylation level of GSK3β | significantly induced PPARγ mRNA expression | significantly increased the phosphorylation level of IRS-1 | had an activity of lowering triglycerides better than gemfibrozil | could reduce the total cholesterol content in the blood | could significantly reduce the blood glucose level | 1.59 ± 0.13 | 0.33 ± 0.09 | 187.75 ± 62.07 U/L | 210.75 ± 56.97 | 3.06 ± 0.63 | 1.44 ± 0.42 | could significantly reduce the fat content in the liver | could be metabolized by the liver to produce metabolites BJMU-415 and 502
 |  |  | Cc1cc(OCCCC(C)(C)C(=O)O)c(C)cc1F [BJMU-3, 5-(4-fluoro-2,5-dimethylphenoxy)-2,2-dimethylpentanoic acid] |  | significantly induced ACOX1 mRNA expression | significantly induced PGC1α mRNA expression |  | significantly induced PPARγ mRNA expression | significantly increased the phosphorylation level of IRS-1 |  |  |  |  |  |  |  |  |  |  | 
9.56 ± 1.57 | 1037 ± 523.17 | 16 ± 10.46 | Cc1ccc(C)c(OCCCC(C)(C)C(=O)O)c1 [gemfibrozil, Gemfibrozil, reference compound] |  | could not activate ACOX1 expression | could not activate PGC1α expression |  |  |  |  | did not show the activity of lowering total cholesterol in blood | did not show obvious hypoglycemic activity | 1.64 ± 0.28 | 0.35 ± 0.02 | 172.25 ± 123^ U/L | 225 ± 132.19 | 3.37 ± 0.36 | 2.09 ± 0.95 | neither gemfibrozil nor pioglitazone showed the above activity | 
